Assay results taken from ChEMBL document CHEMBL1759917, “Synthesis of purin-2-yl and purin-6-yl-aminoglucitols as C-nucleosidic ATP mimics and biological evaluation as FGFR3 inhibitors” (Eur J Med Chem, 2011).
Active and inactive are the calls of the source. The calls are words filed in the database; no cut-off is given here.

Each molecule was assayed against Fibroblast growth factor receptor 3 (Homo sapiens) (UniProt P22607) (assay: Inhibition of FGFR3 at 50 uM).
Chain of Fibroblast growth factor receptor 3 (Homo sapiens) (P22607 23-806 limits assumed): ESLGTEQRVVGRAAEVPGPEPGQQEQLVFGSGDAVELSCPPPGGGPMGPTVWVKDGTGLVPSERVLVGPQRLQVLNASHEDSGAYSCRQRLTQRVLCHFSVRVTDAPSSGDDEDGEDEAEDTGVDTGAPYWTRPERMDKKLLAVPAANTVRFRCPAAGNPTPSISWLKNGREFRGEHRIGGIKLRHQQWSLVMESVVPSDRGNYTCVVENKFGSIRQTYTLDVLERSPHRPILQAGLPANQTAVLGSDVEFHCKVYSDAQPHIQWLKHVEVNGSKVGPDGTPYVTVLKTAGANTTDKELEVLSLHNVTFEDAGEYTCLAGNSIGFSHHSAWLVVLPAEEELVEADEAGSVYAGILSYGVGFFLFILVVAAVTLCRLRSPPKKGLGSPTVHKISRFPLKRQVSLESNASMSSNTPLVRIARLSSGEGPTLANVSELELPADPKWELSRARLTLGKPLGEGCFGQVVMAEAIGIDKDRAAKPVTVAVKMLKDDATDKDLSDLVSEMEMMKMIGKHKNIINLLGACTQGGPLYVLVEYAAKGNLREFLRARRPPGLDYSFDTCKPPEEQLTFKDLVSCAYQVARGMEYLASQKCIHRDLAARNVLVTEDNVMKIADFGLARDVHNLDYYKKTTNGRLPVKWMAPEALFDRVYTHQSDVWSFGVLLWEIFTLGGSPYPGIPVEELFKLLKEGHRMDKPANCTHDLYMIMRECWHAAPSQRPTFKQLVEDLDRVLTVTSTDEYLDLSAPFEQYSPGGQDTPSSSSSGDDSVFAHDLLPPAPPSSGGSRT

Structure (SMILES)	inhibition call (active / not active)
OC[C@H]1O[C@@H](CNc2nc(NCCc3ccccc3)nc3[nH]cnc23)[C@@H](O)[C@@H]1O	Active
Nc1nc(N)c2ncn(C[C@@H]3O[C@H](CO)[C@@H](O)[C@H]3O)c2n1	inactive
COc1ccc(CCNc2nc(NC[C@@H]3O[C@H](CO)[C@@H](O)[C@@H]3O)c3nc[nH]c3n2)cc1OC	Active
OC[C@H]1O[C@@H](CNc2nc(NCCc3ccccc3)c3nc[nH]c3n2)[C@@H](O)[C@@H]1O	Active
Nc1ncnc2c1ncn2C[C@@H]1O[C@H](CO)[C@@H](O)[C@H]1O	inactive
OC[C@H]1O[C@@H](CNc2nc(NCCN3CCOCC3)c3nc[nH]c3n2)[C@@H](O)[C@@H]1O	Active
COc1ccc(CCNc2nc(NC[C@@H]3O[C@H](CO)[C@@H](O)[C@@H]3O)nc3[nH]cnc23)cc1OC	Active

Continued, values first:

inhibition call (active / not active)	Structure (SMILES)
Active	Ic1nc(NCCN2CCOCC2)c2nc[nH]c2n1
Active	OC[C@H]1O[C@@H](CNc2nc(NCCc3ccccc3)c3nc[nH]c3n2)[C@@H](OCc2ccccc2)[C@@H]1OCc1ccccc1
Active	OC[C@H]1O[C@@H](CNc2nc(I)nc3[nH]cnc23)[C@@H](OCc2ccccc2)[C@@H]1OCc1ccccc1
inactive	CCN(CC)CCCNc1nc(N)c2ncn(C[C@@H]3O[C@H](CO)[C@@H](O)[C@H]3O)c2n1
inactive	Nc1ncc2ncn(C[C@@H]3O[C@H](CO)[C@@H](O)[C@H]3O)c2n1
inactive	Nc1nc(Nc2ccccc2)c2ncn(C[C@@H]3O[C@H](CO)[C@@H](O)[C@H]3O)c2n1
Active	OC[C@H]1O[C@@H](CNc2nc(NCCN3CCOCC3)nc3[nH]cnc23)[C@@H](O)[C@@H]1O
inactive	CCN(CC)CCCNc1nc(Nc2ccccc2)c2ncn(C[C@@H]3O[C@H](CO)[C@@H](O)[C@H]3O)c2n1
Active	OC[C@H]1O[C@@H](CNc2nc(NCCc3ccccc3)nc3[nH]cnc23)[C@@H](OCc2ccccc2)[C@@H]1OCc1ccccc1
